The record followed here is patent EP4653435A1, “PRMT5-MTA INHIBITOR” (Suzhou Puhe Biopharma Co., Ltd., priority 2023, dated 2024).

For data set [1], the system named is HCT116-MTAPdel. The experiment in a line: 2D antiproliferative assay (CTG cell viability), MTAP-deficient cells. Type of data set: cell-based. The settings on record: for IC50: Homo sapiens, HCT-116, HCT116 MTAP-deficient cells, 7-10 days, CTG, read-out: HCT116-MTAPdel/IC50/nM; for HCT116WT IMTAPdel selectivity: ratio IC50 wild type / MTAPdel, antiproliferation.

Data set [2] relates to HCT116-MTAPwt. The experiment in a line: 2D antiproliferative assay (CTG cell viability), wild-type cells. The note with it: Homo sapiens, HCT-116, 7-10 days. Type of data set: cell-based.
The subject of data set [3] is SDMA/HCT116-MTAPdel. Put plainly: In-cell arginine symmetric dimethylation inhibition (In-cell western, ICW), MTAP-deficient cells. The settings on record: for IC50: Homo sapiens, HCT-116, HCT116 MTAP-deficient cells, 96 hours; for Selectivity wt/MTAPdel: ratio SDMA IC50 wt / MTAPdel. The data set is classed as cell-based. The method, then:
(§1) 60 nL of different concentrations of compounds were added to each well using an Echo, and incubated at 37°C, 5% CO2 for 96 hours.
(§2) Next, 50 µL of 4% paraformaldehyde solution was added to each well and incubated at room temperature for 20 minutes to fix the cells. The solution in the wells was removed, and each well was rinsed four times with PBS solution containing 0.1% Tween 20 (PBST). To each well was then added 30 µL of ice-cold methanol. After standing at -20°C for 10 minutes, the methanol was removed and the wells washed four times with PBST. 30 µL of Odyssey blocking solution containing 0.5% Tween 20 was added to each well and shaken for 2 hours at room temperature. The blocking solution was removed and 30 µL of primary antibody (Symmetric Di-Methyl Arginine Motif [sdma-RG] MultiMab™ Rabbit mAb mix) diluted at 1:500 in Odyssey blocking solution containing 0.5% Tween 20 was added to each well. The plates were incubated overnight at 4°C, before removing the primary antibody and rinsing each well four times with PBST, 5 minutes per rinse. Secondary antibody (goat anti-rabbit IRDye 800CW, 1:800) and nuclear stain (DRAQ5, 1:10000) diluted in Odyssey blocking solution containing 0.5% Tween 20 were then added to each well before incubating at room temperature for 2 hours in the dark. The secondary antibody was removed, and the wells rinsed four times with PBST.
(§3) The sdme-RG and DRAQ5 signals were scanned at 800 nm and 700 nm respectively on a Li-Cor Odyssey instrument and the signal values recorded. The sdme-RG/DRAQ5 ratio was used to calculate the percentage inhibition of arginine symmetric dimethylation (SDMA), and the IC50 value calculated using GraphPad Prism software.

For data set [4], the system named is SDMA/HCT116-MTAPwt. The experiment in a line: In-cell arginine symmetric dimethylation inhibition (In-cell western, ICW), wild-type cells. The settings on record: Homo sapiens, HCT-116, 96 hours. Type of data set: cell-based. The method, then:
as §1, §2, §3

A short description of data set [5]: Liver microsomal stability assay, mouse. Type of data set: in vitro ADME. The settings on record: mouse liver microsomes 0.5 mg/mL, compound 1 µM, NADPH 1 mM, 60 minute.
Description: (§6) The compounds to be tested were co-incubated with liver microsomes of different species with or without the addition of NADPH. The final concentration of the test compounds in the test system was 1 µM, the final concentration of NADPH was 1 mM, and the final concentration of liver microsomes was 0.5 mg/mL.
The nature of data set [6]: in vitro. The settings on record: dog, MDCK-MDR1, pH 7.4. As for the experimental part: (§4) The membrane permeability of the molecules of the present invention was evaluated to predict their permeability to the brain.
(§5) The specific procedure was: 1. MDCK-MDR1 cells were pre-cultured at a density of 1.56*10^6 cells/mL in a 96-well plate at 37°C for 7 days. 2. The MDCKII-MDR1 plate was taken out of the incubator, rinsed twice with pre-warmed HBSS (10 mM HEPES, pH 7.4), and then incubated at 37°C for 30 minutes. 3. The stock solution of the compound to be tested was diluted with DMSO to obtain a 0.2 mM solution, and then diluted with HBSS (10 mM HEPES, pH 7.4) to obtain a 1 µM working solution. A blank control group was also diluted with DMSO to obtain a 0.2 mM solution, and then diluted with HBSS (10 mM HEPES, pH 7.4) to obtain a 1 µM working solution. The final concentration of DMSO in the culture system was 0.5%. 4. The transport rate of the drug in the apical to basolateral direction was determined: 125 µL of the 1 µM test compound solution was added to a Transwell insert (top compartment), before immediately transferring a 50 µL sample (D0 sample) from the top comparment to a new 96-well plate. The receiving plate wells (basolateral compartment) were filled with 235 µL HBSS (10 mM HEPES, pH 7.4) and incubated at 37°C for 2 hours. 5. Upon completion of the incubation, 50 µL samples were transferred from the donor and acceptor sides to the wells of a new 96-well plate, before adding 4 volumes of cold acetonitrile containing an appropriate internal standard (IS). Prior to LC-MS/MS analysis, 100 µL of the supernatant was taken and mixed with an appropriate volume of ultrapure water. Papp = (VA×[drug]acceptor)/(Area×Time×[drug]initial,donor) [formula] where VA is the volume of the receptor pores (unit:mL), Area is the surface area of the membrane (0.143 cm^2 for a Transwell-96 well permeable support), and time is the total transport time in seconds. Efflux Ratio = Papp(B−A) /Papp(A−B) [formula]

For data set [7], the system named is MDR1 (P-gp). The experiment in a line: in vitro. The settings on record: dog, MDCK-MDR1, pH 7.4. The method, then:
as §4, §5

Data set [8] can be described thus: Mouse pharmacokinetics testing. Type of data set: in vivo, CD1 female mice. The settings on record: female, CD1, mouse, in vivo. The method, then:
CD1 female mice were used as test animals and administered the compounds orally/intravenously (oral dosage was 10 mg/kg and intravenous dosage was 2 mg/kg). Test protocol: Each oral and intravenous group consisted of three mice. […] Plasma drug concentrations after oral and intravenous administration were determined by LC/MS/MS, and the collected data analyzed using AB Sciex QTRAP 6500 software.

In data set [9] the test system is NCI-H838 (MTAPdel) non-small cell lung adenocarcinoma tumor cells. The experiment in a line: In vivo efficacy, NCI-H838 subcutaneous xenograft. Set-up: species or system BALB/c nude mice. The settings on record: BID, oral; for TGI: 23 consecutive days; for Tumor volume (mm^3)-D1: D1 (baseline at start of dosing). The method, then: NCI-H838 (MTAPdel) non-small cell lung adenocarcinoma tumor cells were cultured and inoculated into 6-8 week old female BALB/c nude mice (weighing about 20 g), with all mice inoculated subcutaneously. The mice were cultured in an SPF-grade environment, and all mice had free access to commercially certified standard diets. Test compounds were orally administered daily once the average tumor volume of the mice grew to about 140 mm^3. The control group received blank solvent (saline containing 0.1% Tween 80 and 0.5% methyl cellulose), while the test group received a drug dose of 75 mg/kg or 100 mg/kg, twice a day. Tumor volume was measured in two dimensions with calipers three times a week, and the animals were weighed every day. […] Volume calculation formula: V=1/2a*b^2, where a denotes the long diameter of the tumor, and b the short diameter of the tumor.

Data set [10] can be described thus: Liver microsomal stability assay, human. The note with it: liver microsomes. For orientation: Microsomes from liver hold many membrane-bound enzymes, among them those of drug oxidation.
Description: as §6
The nature of data set [11]: in vitro. The settings on record: human, microsomes.
Description: as §6
Data set [12] deals with hERG channels (Homo sapiens, UniProt Q12809). The experiment in a line: cell-based.
hERG channels, sequence (Q12809 whole entry): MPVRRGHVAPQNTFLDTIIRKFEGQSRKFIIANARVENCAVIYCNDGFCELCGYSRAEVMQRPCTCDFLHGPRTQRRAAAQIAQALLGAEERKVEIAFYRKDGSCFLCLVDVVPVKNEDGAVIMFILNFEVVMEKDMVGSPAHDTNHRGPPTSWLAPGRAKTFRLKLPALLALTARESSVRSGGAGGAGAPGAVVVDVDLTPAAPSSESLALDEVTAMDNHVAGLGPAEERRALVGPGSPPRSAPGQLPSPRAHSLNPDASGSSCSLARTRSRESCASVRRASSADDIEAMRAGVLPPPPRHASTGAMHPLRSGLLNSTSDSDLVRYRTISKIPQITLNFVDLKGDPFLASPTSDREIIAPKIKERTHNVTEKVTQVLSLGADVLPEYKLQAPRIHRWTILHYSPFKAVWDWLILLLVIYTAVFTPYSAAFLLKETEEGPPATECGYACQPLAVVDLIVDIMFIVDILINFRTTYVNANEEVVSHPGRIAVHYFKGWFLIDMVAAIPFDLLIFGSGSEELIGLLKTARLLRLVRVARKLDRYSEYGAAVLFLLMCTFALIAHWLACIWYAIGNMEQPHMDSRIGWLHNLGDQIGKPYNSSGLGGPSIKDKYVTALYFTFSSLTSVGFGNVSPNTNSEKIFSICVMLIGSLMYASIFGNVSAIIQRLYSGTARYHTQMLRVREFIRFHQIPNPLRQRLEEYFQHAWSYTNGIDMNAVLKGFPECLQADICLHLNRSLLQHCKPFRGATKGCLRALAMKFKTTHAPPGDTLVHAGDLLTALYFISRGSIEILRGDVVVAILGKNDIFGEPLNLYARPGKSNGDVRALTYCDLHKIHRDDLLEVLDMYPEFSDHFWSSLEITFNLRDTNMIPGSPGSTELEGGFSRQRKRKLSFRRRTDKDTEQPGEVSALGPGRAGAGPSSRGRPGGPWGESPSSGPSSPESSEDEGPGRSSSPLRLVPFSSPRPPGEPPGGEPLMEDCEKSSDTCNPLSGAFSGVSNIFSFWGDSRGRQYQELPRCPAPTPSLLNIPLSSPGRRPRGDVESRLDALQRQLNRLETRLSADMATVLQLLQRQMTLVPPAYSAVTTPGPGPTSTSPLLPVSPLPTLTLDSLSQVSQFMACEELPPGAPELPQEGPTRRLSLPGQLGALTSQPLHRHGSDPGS
Description: The CHO hERG-Duo cell line stably expressing hERG channels was purchased from B'SYS GmbH and screened for monoclonal clones using the patch clamp system of Pharmaron Beijing Co., Ltd. The cells were cultured in a medium containing F12 (HAM) medium, 10% fetal bovine serum, 100 U/mL penicillin-streptomycin, 100 µg/mL hygromycin, and 100 µg/mL G418.
The membrane was depolarized to +30 mV for 4.8 seconds before returning the voltage to -50 mV for 5.2 seconds to remove inactivation and measure the deactivation tail current. The sampling interval was 15 seconds, and the peak tail current size was used to quantify the hERG current amplitude.
A blank vehicle was applied to the cells to establish a baseline. Test samples were introduced after stabilizing the hERG current for at least 5 minutes. In the presence of the test compound, the hERG current at different working concentrations was recorded for no less than 5 minutes until reaching a steady state, before capturing 5 sweeps. If a steady state was not reached within 10 minutes, the mean peak current of the last 5 sweeps was taken instead of the steady-state value. […] Peak current inhibition = (1−(Peak tail currentcompound −Peak tail currentpositive control)/(Peak tail currentBlank vehicle −Peak tail currentpositive control)) × 100 [formula]
The test system of data set [13] is HUP-T4 (MTAPdel) human pancreatic cancer tumor cells. Put plainly: In vivo efficacy, HUP-T4 subcutaneous xenograft. More on the design: species or system BALB/c nude mice. The note with it: BID, oral; for TGI: 28 consecutive days; for Tumor volume (mm^3)-D1: D1 (baseline at start of dosing). The method, then:
HUP-T4 (MTAPdel) human pancreatic cancer tumor cells (MEM medium with 10% fetal bovine serum) were cultured and inoculated into 6-8 week old female BALB/c nude mice (weighing about 25 g), with all mice subcutaneously inoculated. The mice were cultured in an SPF-grade environment, and all mice had free access to commercially certified standard diets. Test compounds were orally administered daily once the average tumor volume of the mice grew to about 176 mm^3. The control group received blank solvent (0.1% TW80+0.5% methylcellulose+99.4% saline), while the test group received a drug dose of 75 mg/kg or 50 mg/kg, twice a day. Tumor volume was measured in two dimensions with calipers three times a week, and the animals were weighed every day. […] Voume calculation formula: V=1/2a*b^2, where a denotes the long diameter of the tumor, and b the short diameter of the tumor.

Molecules are shown by their SMILES.

A word on the CLint scaled: it is the rate of metabolic loss divided by the concentration. The Papp A→B is how fast a substance crosses the layer from the apical side. Lower therefore signals poor permeation. One may read the Papp B→A as how fast a substance crosses the layer from the basolateral side. By efflux ratio is commonly meant a quotient of directional permeabilities that is used to spot active efflux. As a reminder, the AUC(0-t) is the area under the concentration-time curve up to a stated or last time point. Low readings indicate low exposure, high ones high exposure. In general, clearance refers to the volume of plasma or blood freed of the substance per unit of time. Broadly, the half-life is the time needed for the level to fall by half in the phase considered. The Cmax is the maximum level reached in the sampled fluid or tissue. A word on the Tmax: it is the time from dosing to the highest level. As to `CN(C(=O)C(=O)Nc1cnc(N)c2c1cnn2C)[C@@H]1COc2cc(C(F)(F)F)ccc21` [Compound P2a], in data set [1], the IC50 turned out to be 5 nM and the “HCT116WT IMTAPdel selectivity” value turned out to be 216. Further, the IC50 in [2] turned out to be 1080 nM. In [3], the IC50 came to 0.5 nM and the “Selectivity wt/MTAPdel” value came out at 3054. Further, the IC50 in [4] was 1530 nM. Moreover, the CLint scaled at 1 µM in data set [5] stood at 55 mL/min/kg. In [6], this molecule registered an apical-to-basolateral permeability (Papp A→B) of 14.8 ×10⁻⁶ cm/s and an apparent permeability from basolateral to apical (Papp B→A) of 22.1 ×10⁻⁶ cm/s. In addition, the efflux ratio in [7] amounted to 1.5. The molecule also registered a F in [8] of 69%. In data set [8] (iv, 2 mg/kg), this molecule showed an exposure AUC(0-t) of 402 ng·h/mL, a C0 of 345 ng/mL, a clearance of 82.4 mL/min/kg and a half-life of 1.2 h. For the same molecule, in [8] (po, 10 mg/kg), the AUC(0-t) was 1380 ng·h/mL, the highest level (Cmax) was 707 ng/mL, the Tmax turned out to be 0.25 h and the half-life was 1.2 h. In data set [9] (75 mg/kg), the TGI was 92%, the “Tumor volume (mm^3)-D1” value came to 140 mm^3 and the “Tumor volume (mm^3)-D23” value stood at 350 mm^3. For the same molecule, in data set [9] (100 mg/kg), the TGI worked out at 97%, the “Tumor volume (mm^3)-D1” value is on record as 140 mm^3 and the “Tumor volume (mm^3)-D23” value came to 180 mm^3. This molecule came in with a CLint scaled at 1 µM in [10] of 7.4 mL/min/kg.

As for `CN(C(=O)C(=O)Nc1cnc(N)c2c1cnn2C)C1COc2cc(SC(F)(F)F)ccc21` (racemic) [Compound P29], in [1], the IC50 was found to be 20 nM and the “HCT116WT IMTAPdel selectivity” value turned out to be 165. Also, the IC50 in [2] is 3300 nM. Moreover, the intrinsic clearance (CLint scaled) at 1 h, 1 µM in data set [11] came out at 25.9 mL/min/kg.

On to `CN(C(=O)C(=O)Nc1cnc(N)c2c1cnn2C)[C@@H]1COc2cc(SC(F)(F)F)ccc21` [Compound P29a], for which the IC50 in data set [1] turned out to be 9 nM; in [2] it was 2350 nM; in data set [3], 0.4 nM; in data set [4] it was 268 nM; in [12], 1500 nM. For the same molecule, the “HCT116WT IMTAPdel selectivity” value in data set [1] amounted to 261. In addition, the “Selectivity wt/MTAPdel” value in data set [3] stood at 670. In data set [6], this molecule came in with an apparent permeability from apical to basolateral (Papp A→B) of 7.6 ×10⁻⁶ cm/s. This molecule yielded a Papp B→A in data set [6] of 13.3 ×10⁻⁶ cm/s. Moreover, the efflux ratio in data set [7] was determined as 1.75. In data set [10], this molecule returned a CLint scaled at 1 µM of 49.7 mL/min/kg.

Turning to `[2H]C([2H])([2H])N(C(=O)C(=O)Nc1cnc(N)c2c1cnn2C)[C@@H]1COc2cc(SC(F)(F)F)ccc21` [Compound P32], in data set [1], the IC50 amounted to 9 nM and the “HCT116WT IMTAPdel selectivity” value was determined as 194. For the same molecule, in data set [2], the IC50 was found to be 1750 nM. For the same molecule, in data set [3], the IC50 was found to be 0.3 nM and the “Selectivity wt/MTAPdel” value was found to be 853. Besides, the IC50 in data set [4] turned out to be 256 nM. The molecule further gave a CLint scaled at 1 µM in data set [5] of 242 mL/min/kg. In data set [6], the Papp A→B was found to be 10.5 ×10⁻⁶ cm/s and the Papp B→A amounted to 13.5 ×10⁻⁶ cm/s. Also, the efflux ratio in [7] stood at 1.28. The F in [8] was 75%. Besides, in [8] (iv, 2 mg/kg), the AUC(0-t) was 788 ng·h/mL, the C0 came out at 733 ng/mL, the clearance was 41.8 mL/min/kg and the half-life was 1.4 h. For the same molecule, in [8] (po, 10 mg/kg), the AUC(0-t) came out at 2580 ng·h/mL, the Cmax was determined as 798 ng/mL, the Tmax amounted to 0.25 h and the half-life is 1.7 h. Further, in [13] (50 mg/kg), the TGI is reported as 97%, the “Tumor volume (mm^3)-D1” value was found to be 176 mm^3 and the “Tumor volume (mm^3)-D28” value was 198 mm^3. Moreover, in [13] (75 mg/kg), the TGI is recorded as 104%, the “Tumor volume (mm^3)-D1” value is 176 mm^3 and the “Tumor volume (mm^3)-D28” value worked out at 140 mm^3. Moreover, in data set [12], the IC50 amounted to 2900 nM. Besides, the CLint scaled at 1 µM in [10] stood at 32 mL/min/kg.
